Laboratory results reported in patent US20100197610A1, “FRUCTOSE 1, 6 BISPHOSPHATE - A NOVEL ANTICONVULSANT DRUG” (Baylor College of Medicine, priority 2007, published 2010).

Experiments:
[1] = FDP levels in blood, brain and peripheral tissues after intraperitoneal administration; format: in vivo, Sprague-Dawley rats
Method: Adult male Sprague-Dawley rats (170-220 g) were used to determine the kinetics of fructose-1,6-diphosphate (FDP). Levels of FDP were determined in blood and tissue samples as previously described (Gerhard, Methods of Enzymatic Analysis, Vol VI, Ed. Bergmeyer, H U, Academic Press NY, pp. 342-350). All chemicals and enzymes for the assay were obtained from Sigma Chemical Co (St. Louis Mo.). Animals were administered a single dose of 0.5 g kg-1 FDP (250 mg ml-1 dissolved in 0.1M phosphate buffered saline, pH 7). In vivo studies utilized the dicalcium salt of FDP, which has a purity of ˜70%. […] At the designated time, animals were anesthetized with 1 g kg-1 urethane. After deep anesthesia, whole blood was obtained from a cardiac puncture. One ml of whole blood was added to 5 ml of perchloric acid ([…]) and mixed. After centrifugation at 3,500 rev min-1 for 10 min at 4° C., the supernatant was removed and set aside. The sediment was re-suspended in 1 ml of the perchloric acid solution and 1 ml of distilled water and centrifuged. The resulting supernatant was combined with the first one and the pH was adjusted to 3.5 with potassium carbonate (5 mol l-1). The final volume was brought to 7 ml and the solution was allowed to sit in ice for 15 min. The supernatant was used for determination of FDP levels.
Immediately after removal of the whole blood sample, the rat was perfused through the heart with ice-cold 0.01M phosphate buffered saline. Tissue samples from liver, kidney, skeletal muscle (from thigh) and intra-abdominal fat were obtained and then the brain was removed and dissected into hippocampus, cerebral cortex, cerebellum and rest of brain. […] All tissue samples were weighed and then homogenized in 5 ml of ice-cold perchloric acid (0.6 mol l-1) as quickly as possible. The homogenates were then treated was described above for whole blood.
Actual levels of FDP were determined by monitoring absorbance of reduced nicotinamide adenine dinucleotide (NADH) and treating the sample with aldolase (EC 4.1.2.13, 45 units mg-1 diluted 1:27 with distilled water), the enzyme which cleaves FDP into dihydroxyacetone phosphate (DAP) and D-glyceraldehyde 3-phosphate (GAP). DAP and GAP are interconverted by the enzyme triosephosphate isomerase (TIM, EC 5.3.3.1, 5290 units mg-1 diluted 1:120 with distilled water). Glycerol-3-phosphate dehydrogenase (GDH, EC 1.1.1.8, 252 units mg-1 diluted 1:100 with distilled water) catalyzes the reduction of DAP by NADH. For the FDP measurements, 1.5 ml of tetraethyl ammonium buffer (TEA, 0.4 mol l-1, pH 7.6 with EDTA 40 mmol l-1) was added to 1 ml of the sample in a 4 ml cuvette. Then 0.1 ml of 5 mmol l-1 β-NADH, 0.4 ml of distilled water and 0.01 ml of the enzymes TIM and GDH were added and the cuvette inverted to mix the solutions. After 5 min the absorbance was read 3 times at 340 nm, each reading 3 min apart. The average of these readings is the initial absorbance (Ai). This step removes any DAP or GAP in the sample and determines the baseline absorbance. Aldolase (0.01 ml) was then added and mixed to cleave FDP into DAP and GAP. Nine minutes after addition of the aldolase, the final absorbance (Af) was determined by 3 readings at 340 nm, each 6 minutes apart. The concentration of FDP in the sample was proportional to the difference in the initial and final absorbance. Two moles of NADH are oxidized for each mole of FDP. Blanks and a FDP standard sample were run in parallel with every assay. Each blank had 1.6 ml of the TEA buffer, 1.4 ml water and the mixture of TIM and GDH. For the positive control, the sample was replaced with 1 ml of a solution containing 200 μg FDP per ml of phosphate buffered saline. The trisodium salt of FDP, with a purity of >98%, was utilized for all of the positive control samples and for the standard curves. Levels of FDP in blood were determined per ml, while levels in tissue samples were determined as a function of tissue weight. […]

[2] = cited from earlier work

O=C(COP(=O)(O)O)[C@@H](O)[C@H](O)[C@H](O)COP(=O)(O)O [F1,6BP, Fructose-1,6-bisphosphate]
FDP level in the brain at 12 hours vs levels at 1 and 2 hours ([1]; 0.5 g kg-1 ip): not significantly different | time of peak FDP levels in blood ([1]; 0.5 g kg-1 ip): 2 h | time of peak FDP levels in the brain ([1]; 0.5 g kg-1 ip): 1 to 2 h | FDP levels in blood vs control ([1]; 0.5 g kg-1 ip, 1 hour): significant increase | FDP level in blood compared to control values ([1]; 0.5 g kg-1 ip, 12 hours): significantly elevated | FDP level in blood compared to the peak levels at 2 hours ([1]; 0.5 g kg-1 ip, 12 hours): significantly decreased | FDP levels in liver, kidney, muscle and fat ([1]; 0.5 g kg-1 ip, 12 hours): returned to near baseline | FDP levels in the brain vs control ([1]; 0.5 g kg-1 ip, 36 hours): remained significantly elevated | FDP levels in blood ([1]; 0.5 g kg-1 ip, by 6 hours): fallen more than halfway back to baseline | increase in FDP at 1 hour, all tissues measured ([1]; 0.5 g kg-1 ip, liver, kidney, skeletal muscle and fat, n=6): around 0.2 mg g-1 | increase in FDP at 1 hour, kidney ([1]; 0.5 g kg-1 ip, n=6): 0.26 mg/g | increase in FDP at 1 hour, liver ([1]; 0.5 g kg-1 ip, n=6): 0.17 mg/g | increase in FDP at 1 hour, muscle ([1]; 0.5 g kg-1 ip, n=6): 0.17 mg/g | time at which an increase of FDP levels in blood was first seen ([1]; single dose 0.5 g kg-1 ip): 30 min | time out to which FDP levels in blood remained elevated ([1]; single dose 0.5 g kg-1 ip): 72 h | toxicity in humans ([2]; administered to humans): no reported toxicity | safety in healthy volunteers ([2]; doses from 5 to 15 g): safe
